Measurements reported in patent publication US20030060511A1, “Method for treatment of ocular hypertension and glaucoma” (SUCAMPO AG, priority 2001, published 2003).

Tests used:
[1] = molecular target: FP receptor (Homo sapiens, UniProt P43088); conditions: background art; cited from earlier work
[2] = test system: IOP in Normal Monkeys; test: IOP in normal monkeys after single topical application of eye drops (Example 1); format: in vivo, cynomolgus monkeys; conditions: for IOP lowering (change in IOP from time 0, ΔIOP): single administration, significant vs vehicle control (Dunnett's test)
Experimental: Male cynomolgus monkeys (eight monkeys, body weights 3.0-4.5 kg) were used. To the right eyes of the monkeys, 30 μL/eye of 0.005% 13,14-dihydro-15-keto-17-phenyl-18,19,20-trinor-PGF2α-isopropyl ester eye drops, 0.005% 13,14-dihydro-17-phenyl-18,19,20-trinor-PGF2α-isopropyl ester (latanoprost) eye drops or the vehicle was administered once with an interval of at least seven days, and the IOPs in the respective animals was measured.
(§1) The animals were retained in the sitting position under systemic anesthesia with intramuscular injection of ketamine hydrochloride (Ketalar® 50, Sankyo Co. Ltd.) 7.5-10 mg/kg and their ocular surfaces were anesthetized with 0.4% oxybuprocaine hydrochloride (Benoxil® 0.4% solution, Santen Pharmaceuticals Co., Ltd.). After that, the IOP was measured with a pneumatonometer (Model 30 Classic, Mentor O & O, Inc.). The IOP was measured before (0 hour) and at 2, 4, 8, 12 and 24 hours after the administration of the test substances.
Changes of the IOP from that of time 0 (ΔIOP) obtained in the each test groups were compared to that obtained in the vehicle-administered control group at each measurement times. Statistical analysis was made with the Dunnett's multiple comparison test. Critical rates less than 5% were evaluated to be statistically significant.

[3] = test system: IOP in Normal Monkeys; test: IOP in normal monkeys after single topical application of eye drops, saline in the other eye (Example 2); format: in vivo, cynomolgus monkeys; conditions: 0.005% eye drops, 30 μL/eye, IOP measured up to 24 hours, compared to saline eye
Experimental: Male cynomolgus monkeys (eight monkeys, body weights 3.0-4.5 kg) were used. To the right eyes of the monkeys, 30 μL/eye of 0.005% 13,14-dihydro-15-keto-18-phenyl-19,20-dinor-PGF2α-isopropyl ester eye drops or 0.005% 13,14-dihydro-15-keto-17-phenoxy-18,19,20-trinor-PGF2α-isopropyl ester eye drops were administered, and to the left eyes, 30 μL/eye of saline was administered. IOP of the animals were determined.
as §1, with “The IOPs were” for “The IOP was”, “of” for “of the”
Changes of the IOP from that of time 0 (ΔIOP) obtained in the each test eyes ([…] eyes) were compared to those obtained in the vehicle administrated eyes (control group) at each measurement times.

Sequence of FP receptor (P43088 whole entry): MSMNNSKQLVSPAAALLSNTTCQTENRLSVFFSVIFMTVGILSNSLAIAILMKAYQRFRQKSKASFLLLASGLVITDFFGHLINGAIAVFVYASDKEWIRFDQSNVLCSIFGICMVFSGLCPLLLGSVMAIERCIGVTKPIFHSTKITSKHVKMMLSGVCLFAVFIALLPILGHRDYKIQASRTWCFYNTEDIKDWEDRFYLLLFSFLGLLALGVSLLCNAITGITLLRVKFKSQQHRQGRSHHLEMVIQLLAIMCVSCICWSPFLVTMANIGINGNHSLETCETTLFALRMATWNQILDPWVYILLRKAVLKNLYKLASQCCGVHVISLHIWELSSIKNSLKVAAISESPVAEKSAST

Row | Structure (SMILES) | Affinity with / effect on FP receptor [1] | Duration of IOP lowering by single administration [3] | further results
1 | CC(C)OC(=O)CCC/C=C\C[C@@H]1[C@@H](CC[C@@H](O)CCc2ccccc2)[C@H](O)C[C@@H]1O [latanoprost, 13,14-dihydro-17-phenyl-18,19,20-trinor-PGF2α-isopropyl ester] | strong affinity |  | 
2 | CCCCCCCC(=O)CC[C@@H]1[C@@H](C/C=C\CCCC(=O)OC(C)C)[C@@H](O)C[C@H]1O [isopropyl unoprostone, 13,14-dihydro-15-keto-20-ethyl-PGF2α-isopropyl ester] | substantially no effect |  | 
3 | CC(C)OC(=O)CCC/C=C\C[C@@H]1[C@@H](CCC(=O)CCc2ccccc2)[C@H](O)C[C@@H]1O [13,14-dihydro-15-keto-17-phenyl-18,19,20-trinor-PGF2α-isopropyl ester] |  |  | Difference of ΔIOPs versus latanoprost group ([2]; 0.005% eye drops each, at any time point of the measurement (2-24 hours)): no significant difference; Duration of IOP lowering by single administration ([2]; 0.005% eye drops, 30 μL/eye, IOP measured up to 24 hours): can lower the IOP and keep the low IOP throughout the day; IOP lowering (change in IOP from time 0, ΔIOP) ([2]; 0.005% eye drops, 30 μL/eye, 4 hours after administration): 2.3±0.4 mmHg; IOP lowering (change in IOP from time 0, ΔIOP) ([2]; 0.005% eye drops, 30 μL/eye, 8 hours after administration): 2.1±0.4 mmHg; IOP lowering (change in IOP from time 0, ΔIOP) ([2]; 0.005% eye drops, 30 μL/eye, 12 hours after administration): 2.4±0.5 mmHg
4 | CC(C)OC(=O)CCC/C=C\CC1C(O)CC(O)C1CCC(=O)CCOc1ccccc1 (stereo not drawn) [13,14-dihydro-15-keto-17-phenoxy-18,19,20-trinor-PGF2α-isopropyl ester] |  | can lower the IOP and keep the low IOP throughout a day | 
5 | CC(C)OC(=O)CCC/C=C\CC1C(O)CC(O)C1CCC(=O)CCCc1ccccc1 (stereo not drawn) [13,14-dihydro-15-keto-18-phenyl-19,20-dinor-PGF2α-isopropyl ester] |  | can lower the IOP and keep the low IOP throughout a day | 
6 | CCCCC[C@H](O)/C=C/[C@@H]1[C@@H](C/C=C\CCCC(=O)O)[C@@H](O)C[C@H]1O [PGF2α] | strong affinity |  | 
